Reference: patent publication US11000492B2, “Fluorenone compound for the treatment of gout” (The Trustees of Columbia University in the City of New York, priority 2015, dated 2021)
“Also recorded” adds a separate entry of the source. Like-named read-outs stand apart in the source and are kept apart here.

What was measured:
serum uric acid [1] = settings: cited from earlier work; for patients meeting target serum levels (serum uric acid): patients with at least one measurable tophus
serum urate = settings: cited from earlier work
[2] = humans; originally studied for treating brain edema; cited from earlier work
[3] = tested on: uric acid levels in the urine; assay: Uric acid levels in the urine of guinea pig; format: in vivo
Description: The fluorenone DPOFA, (R)-(+)-(5,6-dichloro-2,3,9,9a-tetrahydro-3-oxo-9a-propyl-1H-fluoren-7-yl)oxy]acetic acid, was originally developed for trauma-induced brain damage.

serum uric acid [4] = assay: Serum uric acid after systemic intraperitoneal administration in guinea pigs; format: in vivo
gout = assay: Administration of DPOFA to subjects afflicted with or at risk of gout (Examples 3-6); format: in vivo, human
Description: An amount of compound DPOFA is administered to a human subject afflicted with gout. […] An amount of compound DPOFA in combination with allopurinol or febuxostat is administered to a subject afflicted with gout. […] An amount of compound DPOFA is administered to a subject with a history of gout flares or who is at risk for a gout flare. […] An amount of compound DPOFA in combination with allopurinol or febuxostat is administered to a subject with history of gout flares or who is at risk for a gout flare.

[5] = particularly in the 400 mg group

## Cc1nc(-c2ccc(OCC(C)C)c(C#N)c2)sc1C(=O)O [febuxostat]
Serum uric acid [1]; febuxostat alone
  patients meeting target serum levels (serum uric acid): 46%

## O=C(O)CSc1nnc(Br)n1-c1ccc(C2CC2)c2ccccc12 [lesinurad]
Serum uric acid [1]; 200 mg dose
  improvement at six months (primary endpoint): failed to show a significant improvement
Serum uric acid [1]; combination with febuxostat
  proportion of subjects achieving a complete resolution of at least one tophus by month 12: did not result in a significant difference
Serum uric acid [1]; lesinurad 400 mg in combination with febuxostat
  patients meeting target serum levels (serum uric acid): 76%
Serum uric acid [1]; [5]
  rate of renal-related AEs: higher rate of renal-related AEs
  serum creatinine levels: rise in serum creatinine levels

## CCCN(CCC)S(=O)(=O)c1ccc(C(=O)O)cc1 [probenecid]
Serum urate; allopurinol combination treatment group, 10/27
  patients achieving target serum urate concentrations (<0.36 mmol/l): 37%
Serum urate; human, in vivo
  adverse effects, share of subjects tested: 19%
Serum urate; probenecid monotherapy group, 10/30
  patients achieving target serum urate concentrations (<0.36 mmol/l): 33%

## CCC[C@]12CCC(=O)C=C1c1c(cc(OCC(=O)O)c(Cl)c1Cl)C2 [DPOFA]
[2]
  crossing of the blood-brain barrier: failed to cross the blood-brain barrier
[3]
  uric acid levels in the urine: increases uric acid levels in the urine
Serum uric acid [4]; 20 mg intraperitoneally
  reduction in the serum uric acid level: pronounced reduction; also recorded: reduced uric acid levels in the blood
Serum uric acid [4]; following systemic administration of 20 mg
  time point of maximum reduction of uric acid: 7 h
gout; human subject afflicted with gout, Example 3
  serum uric acid levels in subject afflicted with gout: reduces serum uric acid levels
gout; in combination with allopurinol or febuxostat, Example 4
  treating gout, combination versus each compound alone: more effective in treating the gout than each compound administered alone
gout; in combination with allopurinol or febuxostat, Example 6
  preventing gout, combination versus each compound alone: more effective in preventing the gout than each compound administered alone
gout; subject with a history of gout flares or at risk, Example 5
  prevention of gout flares: effective to prevent gout flares
